System: Saccharomyces cerevisiae wild type strain BY4743
Test: AF1 metabolite analysis (GC-MS, LC-MS) of yeast cells treated with antifungal drugs
Assay type: cell-based
Conditions: for # Compounds perturbed: 2x MIC, two hours; for Fold Change of NacetylDglucosamine: metabolite NacetylDglucosamine; for Fold Change of NacetylLglutamate: metabolite NacetylLglutamate; for Fold Change of NacetylLornithine: metabolite NacetylLornithine; for Fold Change of nicotinic acid: metabolite nicotinic acid; for Fold Change of nopaline: metabolite nopaline; for Fold Change of oleic acid: metabolite oleic acid; for Fold Change of ornithine: metabolite ornithine; for Fold Change of phenylalanine: metabolite phenylalanine; for Fold Change of phosphoenolpyruvate: metabolite phosphoenolpyruvate; for Fold Change of pipecolic acid: metabolite pipecolic acid; for Fold Change of proline: metabolite proline; for Fold Change of pyridoxine: metabolite pyridoxine; for Fold Change of selenoDLmethionine: metabolite selenoDLmethionine; for Fold Change of serine: metabolite serine; for Fold Change of sugar-phosphate: metabolite sugar-phosphate; for Fold Change of tetradecanoic acid: metabolite tetradecanoic acid; for Fold Change of threonine/homoserin: metabolite threonine/homoserin; for Fold Change of thymine: metabolite thymine; for Fold Change of tryptophan: metabolite tryptophan; for Fold Change of tyrosine: metabolite tyrosine; for Fold Change of urocanic acid: metabolite urocanic acid; for Fold Change of valine: metabolite valine; for Fold Change of zeatin: metabolite zeatin

## CC[C@@H]([C@H](C)O)n1ncn(-c2ccc(N3CCN(c4ccc(OC[C@@H]5CO[C@@](Cn6cncn6)(c6ccc(F)cc6F)C5)cc4)CC3)cc2)c1=O [Posaconazole]
P < 0.05
  # Compounds perturbed: 3
P < 0.1
  # Compounds perturbed: 4
Metabolite 2-ketobutyric acid, platform nLC
  Fold Change: −0.9992
Metabolite 2-ketoglutaric, platform nLC
  Fold Change: 11.33
Metabolite 3-indolylacetonitri, platform nLC
  Fold Change: −0.9998
Metabolite 4-aminobenzoic acid, platform pLC
  Fold Change: 0
Metabolite 4-methylcatechol, platform nLC
  Fold Change: 0
Metabolite 4-methylcatechol, platform pLC
  Fold Change: 0
Metabolite 4ambutyrate/dimglyc, platform pLC
  Fold Change: 31.37
Metabolite 4aminobutyrate/dimg, platform nLC
  Fold Change: −0.008939
Metabolite 5hydroxyLtryptophan, platform nLC
  Fold Change: 0
Metabolite 5hydroxyLtryptophan, platform pLC
  Fold Change: 0
Metabolite 6-benzylaminopurine, platform nLC
  Fold Change: 0
Metabolite 6benzylaminopurine, platform pLC
  Fold Change: 0
Metabolite DLaminoadipic acid, platform nLC
  Fold Change: −0.9935
Platform nLC
  Fold Change of NacetylDglucosamine: 0
  Fold Change of NacetylLglutamate: −0.07165
  Fold Change of NacetylLornithine: 0
  Fold Change of nicotinic acid: 1.421
  Fold Change of nopaline: 0.7554
  Fold Change of oleic acid: 0.5606
  Fold Change of ornithine: 2.314
  Fold Change of phenylalanine: −0.03702
  Fold Change of phosphoenolpyruvate: 0
  Fold Change of pipecolic acid: 0.1806
  Fold Change of proline: 0.3147
  Fold Change of pyridoxine: −0.1015
  Fold Change of selenoDLmethionine: −0.6722
  Fold Change of serine: 0.152
  Fold Change of sugar-phosphate: −0.04543
  Fold Change of tetradecanoic acid: 1.029
  Fold Change of threonine/homoserin: 0.04034
  Fold Change of thymine: 0
  Fold Change of tryptophan: 4.676
  Fold Change of tyrosine: 0.0282
  Fold Change of urocanic acid: 0
  Fold Change of valine: 0.0195
  Fold Change of zeatin: 0
Platform pLC
  Fold Change of NacetylDglucosamine: 0
  Fold Change of NacetylLglutamate: 0
  Fold Change of NacetylLornithine: 0.1338
  Fold Change of nicotinic acid: −0.8142
  Fold Change of nopaline: 0
  Fold Change of ornithine: 0.4314
  Fold Change of phenylalanine: −0.1585
  Fold Change of phosphoenolpyruvate: 0
  Fold Change of pipecolic acid: 0.3444
  Fold Change of proline: 0.3157
  Fold Change of pyridoxine: −0.239
  Fold Change of selenoDLmethionine: −0.7083
  Fold Change of serine: 0.2417
  Fold Change of sugar-phosphate: 0
  Fold Change of threonine/homoserin: 0.1437
  Fold Change of thymine: 0
  Fold Change of tryptophan: 0
  Fold Change of tyrosine: 0.1008
  Fold Change of urocanic acid: 0
  Fold Change of zeatin: 0
Metabolite TMS mevalonic acid lactone, platform GC
  Fold Change of TMS mevalonic acid lactone: −0.3118
Metabolite abscisic acid, platform nLC
  Fold Change: 0
Metabolite abscisic acid, platform pLC
  Fold Change: 0
Metabolite aconitic acid, platform nLC
  Fold Change: 1.874
Metabolite adenine, platform nLC
  Fold Change: 0
Metabolite adenine, platform pLC
  Fold Change: −0.0145
Metabolite adenosine, platform nLC
  Fold Change: 128.3
Metabolite adenosine, platform pLC
  Fold Change: 0
Metabolite alanine/sarcosine, platform pLC
  Fold Change: 0.1013
Metabolite alanine, platform GC
  Fold Change: 1.035
Metabolite alanine, platform nLC
  Fold Change: 0.1091
Metabolite allantoic acid, platform nLC
  Fold Change: 0.3321
Metabolite allantoic acid, platform pLC
  Fold Change: 0
Metabolite allantoin, platform nLC
  Fold Change: 5.97
Metabolite anthranillic acid, platform nLC
  Fold Change: 0
Metabolite anthranillic acid, platform pLC
  Fold Change: 0
Metabolite arginine, platform nLC
  Fold Change: 0.1707
Metabolite arginine, platform pLC
  Fold Change: 0.03383
Metabolite argininosuccinate, platform nLC
  Fold Change: 318.3
Metabolite argininosuccinate, platform pLC
  Fold Change: 0
Metabolite asparagine, platform GC
  Fold Change: 0.145
Metabolite asparagine, platform nLC
  Fold Change: 0.006865
Metabolite asparagine, platform pLC
  Fold Change: 0.4302
Metabolite aspartic acid, platform GC
  Fold Change: −0.071
Metabolite aspartic acid, platform pLC
  Fold Change: 0.3626
Metabolite aspartic, platform nLC
  Fold Change: 0.305
Metabolite benzoic acid, platform nLC
  Fold Change: 0
Metabolite biotin, platform nLC
  Fold Change: −0.9992
Metabolite biotin, platform pLC
  Fold Change: 0
Metabolite caffeic acid, platform nLC
  Fold Change: −0.49
Metabolite caffeine, platform pLC
  Fold Change: 0
Metabolite campesterol, platform GC
  Fold Change: 0
Metabolite catechol, platform nLC
  Fold Change: 0
Metabolite cinnamic acid, platform nLC
  Fold Change: 0
Metabolite citric acid TME, platform pLC
  Fold Change: 0
Metabolite citricanoic/itaconi, platform nLC
  Fold Change: 0
Metabolite citrulline, platform nLC
  Fold Change: 1160
Metabolite citrulline, platform pLC
  Fold Change: 0.1011
Metabolite coumaric acid, platform nLC
  Fold Change: 0
Metabolite cytidine, platform nLC
  Fold Change: −0.9986
Metabolite cytidine, platform pLC
  Fold Change: 0
Metabolite cytosine, platform nLC
  Fold Change: 0
Metabolite cytosine, platform pLC
  Fold Change: 1135
Metabolite decanoic acid, platform nLC
  Fold Change: 0.1263
Metabolite desmosterol, platform GC
  Fold Change: 0
Metabolite diaminopimelic acid, platform nLC
  Fold Change: 0
Metabolite diaminopimelic acid, platform pLC
  Fold Change: 0
Metabolite dihydrofolic acid, platform nLC
  Fold Change: 0
Metabolite dihydrofolic acid, platform pLC
  Fold Change: 0
Metabolite dipicolinic acid, platform pLC
  Fold Change: 0
Metabolite disaccaride1, platform GC
  Fold Change: 0.04733
Metabolite disaccaride2, platform GC
  Fold Change: 0.313
Metabolite disaccaride3, platform GC
  Fold Change: 0.3407
Metabolite mevalonic acid lactone, platform GC
  Fold Change of mevalonic acid lactone: 0.5555
Metabolite mevalonic lactone, platform pLC
  Fold Change of mevalonic lactone: −0.08368
Metabolite niacinamide, platform pLC
  Fold Change of niacinamide: 0
Metabolite octadecanoic acid, platform GC
  Fold Change of octadecanoic acid: 0.321
Platform GC
  Fold Change of oleic acid: −0.5057
  Fold Change of phenylalanine: 0.06069
  Fold Change of tetradecanoic acid: −0.214
  Fold Change of valine: 0.345
Metabolite ornithine2, platform GC
  Fold Change of ornithine2: −0.1383
Metabolite ornithine3, platform GC
  Fold Change of ornithine3: 0.041
Metabolite orotic acid, platform nLC
  Fold Change of orotic acid: 0
Metabolite palmiteliadic acid, platform GC
  Fold Change of palmiteliadic acid: −0.2453
Metabolite palmitic acid, platform nLC
  Fold Change of palmitic acid: 0.1518
Metabolite phenylpyruvic acid, platform nLC
  Fold Change of phenylpyruvic acid: 0
Metabolite phosphate, platform GC
  Fold Change of phosphate: −0.1833
Metabolite pinitol, platform nLC
  Fold Change of pinitol: 0
Metabolite porphobilinogen, platform nLC
  Fold Change of porphobilinogen: 0
Metabolite progesterone, platform pLC
  Fold Change of progesterone: 0
Metabolite pyrimidine, platform GC
  Fold Change of pyrimidine: 0.159
Metabolite retinoic acid, platform nLC
  Fold Change of retinoic acid: 0
Metabolite riboflavin, platform pLC
  Fold Change of riboflavin: 0
Metabolite salicylic/HObenzoic, platform nLC
  Fold Change of salicylic/HObenzoic: 0
Metabolite shikimic acid, platform nLC
  Fold Change of shikimic acid: 0
Metabolite sinapinic acid, platform nLC
  Fold Change of sinapinic acid: 0
Metabolite sorbitol/mannitol, platform nLC
  Fold Change of sorbitol/mannitol: 0.009121
Metabolite squalene, platform GC
  Fold Change of squalene: 0.07431
Metabolite succinic, platform nLC
  Fold Change of succinic: −0.06141
Metabolite sucrose, platform nLC
  Fold Change of sucrose: 0.1847
Metabolite thiamine, platform pLC
  Fold Change of thiamine: 0
Metabolite threonine2, platform GC
  Fold Change of threonine2: 0.457
Metabolite threonine3, platform GC
  Fold Change of threonine3: 0.225
Metabolite tms glutamine3, platform GC
  Fold Change of tms glutamine3: 0.6709
Metabolite tms lysine4, platform GC
  Fold Change of tms lysine4: 0.05667
Metabolite tms tyrosine2, platform GC
  Fold Change of tms tyrosine2: 1.228
Metabolite tms tyrosine3, platform GC
  Fold Change of tms tyrosine3: 0.1911
Metabolite uracil, platform nLC
  Fold Change of uracil: −0.2779
Metabolite uric acid, platform pLC
  Fold Change of uric acid: 0
Metabolite uridine, platform nLC
  Fold Change of uridine: 0.02855
Metabolite xanthosine(diH2O), platform pLC
  Fold Change of xanthosine(diH2O): 0
Metabolite xanthosineDiH2O, platform nLC
  Fold Change of xanthosineDiH2O: 0

— patent publication US20030229451A1, “Methods and systems for analyzing complex biological systems” (priority 2001, published 2003)
